Experimental data taken from PMC8512853, “Synthesis, Bioactivity, Pharmacokinetic and Biomimetic Properties of Multi-Substituted Coumarin Derivatives” (Molecules, 2021).

Key:
[1] = ABTS radical scavenging assay; settings: 6 min
Description: The ABTS radical cation scavenging assay is a decolorization assay frequently used as an antioxidant activity estimation protocol. […] The absorbance is measured at 734 nm and the antioxidant capacity is compared to a standard antioxidant solution, such as ascorbic acid.
For the evaluation of antioxidant activity, the scavenging capacities of all samples were measured via the ABTS assay, as previously described by Kontogiorgis et al. with some modifications. Briefly, an ethanolic standard ABTS solution (7 mM) was prepared by the addition of ABTS salt and potassium persulfate. […] Each sample was diluted in DMSO and tested in triplicate. The tested mixture contained 10–20 µL of sample and 990–980 µL of the ABTS solution, for a total volume of 1 ml. Blank samples contained equal amounts of DMSO instead of the coumarin analogues, and ascorbic acid was used as a reference sample for the final evaluation of the ABTS scavenging capacity. All mixtures were stored at room temperature to allow decolorization and measured after 6 min. The percentage reduction of the ABTS radical was evaluated according to the following Equation (3):(3) % Reduction=Control OD (mean)−Sample OD (mean)/Control OD (mean)×100

[2] = Hydroxyl (HO•) free radical scavenging assay (competition with DMSO)
Text: The hydroxyl (HO^•) free radical is considered as the most toxic and reactive radical among the ROS, leading to cellular or protein damage, membrane destruction, and even to cellular death when encountered in excess concentration. In this context, the evaluation of the hydroxyl radical scavenging activity of the coumarin analogues was essential. Hydroxyl radicals are mainly produced by the Haber–Weiss reaction in the presence of iron or copper ions. In this protocol, iron-EDTA solution, which catalyzes the autooxidation of ascorbic acid, was used as the hydroxyl radical generation system. In general, the hydroxyl radicals formed oxidize the DMSO to form formaldehyde. The reaction involves the initial interaction of DMSO with the hydroxyl radicals to give methyl radicals, with the final product being formaldehyde, which is determined by Nash method. The intensity of the yellow solution formed was measured at 412 nm against a reagent blank.
For the evaluation of hydroxyl radical scavenging ability, the protocol described by Kontogiorgis et al. was used. In short, each sample was tested in quadruplicate (A, B, C, D). For A and B, 10 μL of coumarin analogs diluted in DMSO (100 mM) were added; for C and D were the respective blanks. Standards (containing DMSO solution) and blanks were all prepared in a similar manner; to the latter an equal amount (10 µL) of solvent was added instead of the tested analogues. According to the protocol described by Klein et al., standard solutions of EDTA, FeCl3, ascorbic acid, and buffer solution (pH 7.4) were also added to each of the tested mixtures. All mixtures were incubated at 37 °C for 30 min, and then 1 mL of Nash solution and […] of CCl3COOH solution were added. After a 10min incubation at 60 °C to allow the formation of the yellow mixture, the absorbance was measured at […].
The results were calculated as performance percentages in relation to the respective standards and blanks according to the following Equation (4):(4) % Scavenging ability= Mean OD(A+B)−Mean OD(C+D)/Mean OD(A+B)

[3] = IAM chromatography (IAM.PC.DD.2 column) and estimated human oral absorption; type: in vitro ADME; settings: for %HOA estimated human oral absorption: Equation (1) from logkw and physicochemical properties; for logkw (IAM retention factor): pH 7.40, IAM.PC.DD.2, intercept at pure aqueous phase
Description: The immobilized artificial membrane (IAM) chromatographic behavior of the 25 novel coumarin derivatives was studied. IAM stationary phases consisting of monolayers of phospholipids (e.g., phosphatidylcholine, PC) immobilized on a propylamine–silica support can simulate interactions of chemicals with cell membranes.
Using an IAM.PC.DD2 column (Regis Technologies) as the stationary phase with PBS as the mobile phase at pH = 7.40, and a flow rate of 3 mL/min in the presence of acetonitrile fractions (C%) of 10%, 15%, 20%, 25%, and 30%, a logkC% value was obtained via the retention time for each concentration of CH3CN. Retention factors were then used to plot logkC% as a function of acetonitrile fraction. The intercept of the linear regression corresponds to the logkw, corresponding to pure aqueous phase.
(1) % HOA=100/1+10^−(2.17+0.88*logkw−0.006*MW−0.83*A−0.53*F^*++1.18*F^*−)
(§1) The physicochemical and biomimetic properties of the new coumarin analogues were studied using liquid chromatography (HPLC) in 220–230 nm Two types of chromatographic columns were used: (i) immobilized artificial membrane (IAM) ([…].PC.DD.2, Regis Technologies) column and (ii) human serum albumin (HSA) (CHIRAL PAK) column.
(§2) The training set consisted of 25 neutral and slightly acidic compounds. Their IAM retention factors were measured at pH 7.40 on a IAM.PC.DD.2 column. The mobile phase consisted of acetonitrile solvent (CH3CN) in various concentrations (10%, 15%, 20%, 25%, 30%) and a flow rate of 3 mL/min was selected. Their HSA retention factors were measured at pH 7.00 on HSA column. The mobile phase consisted of acetonitrile solvent (CH3CN) in 10% concentration and a flow rate of 1 mL/min was selected.
(§3) The different pH values (7.00 for HSA and 7.40 for IAM) were measured with an electronic pH meter MP125 and were achieved by preparing suitable buffers of phosphates and chlorides (0.12 g KH2PO4, 0.72 g Na2HPO4·2H2O, 4.00 g NaCl and 0.10 g KCl). Sodium citrate solution was used to determine the dead time, which was deducted from the results at the end of measurements. The elution time of each coumarin analogue was measured at least three times. Retention times were converted into logk values, which represent the logarithm of the retention indexes, using Equation (8). (8) logk=log(tr−t0/t0) where tr is the retention time of the coumarin derivative and t0 is the dead time.

[4] = target: T1, human serum albumin (HSA) (Homo sapiens, UniProt P02768); test: HSA chromatography and estimated plasma protein binding; type: in vitro ADME; settings: for fraction unbound: human, immobilized human serum albumin (HSA) column, Equation (2) from logk10, pH 7.00, read-out: %PPB estimated plasma protein binding (converted); for logk10 (HSA retention factor): pH 7.00, 10% acetonitrile
T1 construct: purchased CHIRAL PAK
T1 sequence (P02768 25-609): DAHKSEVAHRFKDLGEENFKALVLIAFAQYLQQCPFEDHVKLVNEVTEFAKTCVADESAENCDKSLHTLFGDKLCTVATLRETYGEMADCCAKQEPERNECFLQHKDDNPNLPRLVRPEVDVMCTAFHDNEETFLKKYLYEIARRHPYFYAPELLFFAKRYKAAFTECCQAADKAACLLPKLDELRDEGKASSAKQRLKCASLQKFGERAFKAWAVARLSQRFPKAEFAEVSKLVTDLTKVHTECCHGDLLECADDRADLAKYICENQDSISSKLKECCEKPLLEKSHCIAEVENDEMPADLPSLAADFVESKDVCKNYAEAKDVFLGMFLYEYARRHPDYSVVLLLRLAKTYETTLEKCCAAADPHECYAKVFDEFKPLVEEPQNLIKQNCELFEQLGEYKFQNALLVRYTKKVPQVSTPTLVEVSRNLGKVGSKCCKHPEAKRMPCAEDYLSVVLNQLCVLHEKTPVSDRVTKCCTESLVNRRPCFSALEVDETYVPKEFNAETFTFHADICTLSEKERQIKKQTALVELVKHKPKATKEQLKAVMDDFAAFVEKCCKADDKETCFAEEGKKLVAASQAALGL
Description: The novel coumarin derivatives were also studied using the immobilized protein column HSA. An HSA chromatographic column provides estimates on the binding affinities of chemicals to human serum albumin, which is the most abundant plasma protein and is related to drug efficacy, drug—drug pharmacokinetic interactions, and drug safety. HSA binding can be considered to represent almost the total plasma protein binding of a drug.
Retention factors on the HSA stationary phase were measured using as eluent PBS at pH = 7.00 and a flow rate of 1 mL/min in the presence of 10% acetonitrile.
(2) % PPB=101∗10^logk10/1+10^logk10
as §1, §2, §3

Row | SMILES | ABTS^•+ % (100 μΜ) [1] | HO^• % (100 μΜ) scavenging [2] [%] | %HOA estimated human oral absorption [3] [%] | logkw (IAM retention factor) [3] | fraction unbound [4] | logk10 (HSA retention factor) [4]
1 | Cc1c(-c2ccc(Cl)cc2)c(=O)oc2cccc(O)c12 [Compound 4c, 3-(4-chlorophenyl)-5-hydroxy-4-methyl-chromen-2-one] | 65.2% | 48.5 | 100 | 4.53 | 0.152 | 0.72
2 | Cc1c(-c2ccc(O)cc2)c(=O)oc2ccccc12 [Compound 4h, 3-(4-hydroxyphenyl)-4-methyl-chromen-2-one] | 8.6% | 72.2 | 99.8 | 3.34 | 0.03 | 1.38
3 | CC(=O)Oc1ccc(-c2c(C)c3cc(Br)ccc3oc2=O)cc1 [Compound 3i, 3-(4-acetyloxyphenyl)-6-bromo-4-methyl-chromen-2-one] | no | 64.5 | 99.8 | 3.28 | 0.059 | 1.14
4 | CC(=O)Oc1ccc(-c2c(C)c3ccccc3oc2=O)cc1OC(C)=O [Compound 3l, 3-(4,5-diacetyloxyphenyl)-4-methyl-chromen-2-one] | 2.8% | 10.7 | 99.4 | 2.43 | 0.401 | 0.16
5 | CC(=O)Oc1ccc(-c2c(C)c3ccccc3oc2=O)cc1 [Compound 3h, 3-(4-acetyloxyphenyl)-4-methyl-chromen-2-one] | no | 100 | 99.7 | 2.48 | 0.145 | 0.74
6 | CC(=O)Oc1ccc(-c2c(C)c3cc(Br)ccc3oc2=O)cc1OC(C)=O [Compound 3m, 3-(4,5-diacetyloxyphenyl)-6-bromo-4-methyl-chromen-2-one] | no | 46.7 | 99.6 | 3.21 | 0.105 | 0.89
7 | CC(=O)Oc1cccc2oc(=O)c(-c3ccc(F)cc3)c(C)c12 [Compound 3f, 5-acetyloxy-3-(4-fluorophenyl)-4-methyl-chromen-2-one] | no | 71.6 | 99.7 | 2.52 | 0.206 | 0.57
8 | CC(=O)Oc1ccc(-c2c(C)c3cc(Br)cc(Br)c3oc2=O)cc1OC(C)=O [Compound 3o, 3-(4,5-diacetyloxyphenyl)-6,8-dibromo-4-methyl-chromen-2-one] | no | 52.1 | 99.6 | 3.79 | 0.201 | 0.58
9 | Cc1c(-c2cccc(F)c2)c(=O)oc2cccc(O)c12 [Compound 4e, 3-(3-fluorophenyl)-5-hydroxy-4-methyl-chromen-2-one] | 69.2% | 100 | 99.9 | 3.23 | 0.034 | 1.34
10 | CC(=O)Oc1ccc(-c2c(C)c3cc(Cl)ccc3oc2=O)cc1OC(C)=O [Compound 3n, 3-(4,5-diacetyloxyphenyl)-6-chloro-4-methyl-chromen-2-one] | no | 65.7 | 99.7 | 3.04 | 0.145 | 0.74
11 | CC(=O)Oc1ccc(-c2c(C)c3cc(Cl)ccc3oc2=O)cc1 [Compound 3j, 3-(4-acetyloxyphenyl)-6-chloro-4-methyl-chromen-2-one] | no | 26.6 | 99.9 | 3.06 | 0.088 | 0.97
12 | CC(=O)Oc1cccc2oc(=O)c(-c3cccc(Br)c3)c(C)c12 [Compound 3g, 5-acetyloxy-3-(3-bromophenyl)-4-methyl-chromen-2-one] | 2.8% | 42.0 | 100.0 | 4.77 | 0.12 | 0.83
13 | CC(=O)Oc1cccc2oc(=O)c(-c3cccc(F)c3)c(C)c12 [Compound 3e, 5-acetyloxy-3-(3-fluorophenyl)-4-methyl-chromen-2-one] | 2.0% | 85.2 | 99.7 | 2.47 | 0.149 | 0.73
14 | Cc1c(-c2cccc(Cl)c2)c(=O)oc2cccc(O)c12 [Compound 4b, 3-(3-chlorophenyl)-5-hydroxy-4-methyl-chromen-2-one] | 49.2% | 100 | 99.9 | 3.73 | 0.201 | 0.58
15 | Cc1c(-c2ccc(O)cc2)c(=O)oc2c(Br)cc(Br)cc12 [Compound 4k, 6,8-dibromo-3-(4-hydroxyphenyl)-4-methyl-chromen-2-one] | 27.8% | 100 |  |  |  | 
